The text below walks through data of patent publication US12186332B2, “Methods for overcoming WNT/beta-catenin anti-cancer resistance in leukemia stem cells” (STOWERS INSTITUTE FOR MEDICAL RESEARCH, priority 2019, dated 2025).

In experiment [1] the test system is blast cells, LSCs and HSPCs of leukemic Pten:β-cat^Act mice. Type of experiment: in vivo. To be noted: low-dose DNR with chemotherapy. As for the experimental part: Leukemic mice were treated with vehicle, chemotherapy, [Low]DXR (5×0.5 mg/kg), clinical DXR (1×20 mg/kg), or chemotherapy+[Low]DXR as described in FIG. S2.
Average frequency of each population (n≥6 per group) is shown.
Absolute number/femur±SD of each population (n≥6 per group) is shown.
At 10 days post-treatment, BM was analyzed by flow cytometry to determine frequency of blast cells. Average frequency±SD (n 6 per group). Note that this experiment used clinical dose (normal) or [Low]
Alternatively, a single injection on day 1 of 0.8 or 2.5 μg/g of DXR-loaded nanoparticles (NanoDXR) was given with and without chemotherapy. At 10 days post-treatment, BM was analyzed by flow cytometry to determine frequency of LSCs. Shown is average frequency±SD (n 6 per group).
Alternatively, a single injection on day 1 of 0.8 or 2.5 μg/g of DXR-loaded nanoparticles (NanoDXR) was given with and without chemotherapy. At 10 days post-treatment, BM was analyzed by flow cytometry to determine frequency of HSPCs. Shown is average frequency±SD (n 6 per group).
Whole bone marrow was isolated from uninduced HSC-SCL-Cre^+ Pten^fx/fx βcat^fx(Exon3)/+ (Pn:β-cat^Act) mice and combined with an equal portion of Cre negative bone marrow from a littermate and transplanted into irradiated (10 Grays) B6.SJL-Ptprc^a Pepc^b/BoyJ (Ptprc) recipients.
Chemotherapy for the animal model consisted of Nelarabine (Selleck) and Dexamethasone (BioVision) administered daily for 5 days consecutively. 43.4 mg/ml Nelarabine was administered intravenously via the tail vain according to the formula: Body Weight (g)×5=volume to inject (μl), which yielded 217 mg/kg. 2.5 mg/ml Dexamethasone was injected intraperitoneally according to the formula: Body Weight (g)×4=volume to inject (μl), yielding 10 mg/kg. […] [Low] NanoDXR treatment used doxorubicin nanoparticles (Tran et al. 2014) administered as a single IV injection once per week on day 1 relative to above treatments using 0.8 mg/kg. Maintenance [Low] NanoDXR consisted of once per week injections of 0.4 mg/kg. Groups combining Nelarabine with Doxorubicin used a single injection containing both drugs. All drugs were solubilized in 45% (2-Hydroxypropyl)-p-cyclodextrin (HBC) or 0.9% NaCl.
Cells were collected from bone marrow (femur and tibia), spleen, peripheral blood, and thymus. For cell surface phenotyping, a lineage cocktail (Lin) was used including CD3 (for HSPC but not LSC analysis), CD4, CD8, Mac-1, Gr, B220, IgM, and Ter119 (eBioscience, San Diego, CA). Monoclonal antibodies against CD3 (separate fluorophore for LSC analysis), Sca-1, c-Kit, CD45.1, and CD45.2 were also used where indicated. Cell sorting and analysis were performed using an inFlux (BD), MoFlo (Dako, Ft. Collins, CO) and/or CyAn ADP (Dako, Ft. Collins, CO). Data analysis was performed using FlowJo software (Ashland, OR).

For experiment [2], the system named is Akt-enhanced β-catenin activity (TOP-Luc). Kind of experiment: HTS TOPFlash/FOPFlash luciferase reporter dose-response. Type of experiment: cell-based. The conditions noted are these: DNR dose-response (FIG. 13A).
The subject of another experiment is pS^552-β-cat^+ LSCs. Kind of experiment: Pilot clinical trial of low-dose DNR in relapsed/refractory adult AML. Type of experiment: in vivo, human. The conditions noted are these: low-dose DNR 6.75 mg/m^2 daily ×5; BM day 0 vs day 8. The source says:
This was registered at clinicaltrials.gov (identifier NCT02914977). All patients provided informed consent according to institutional guidelines. At least two prior induction attempts were required for fit patients with primary refractory leukemia; unfit or relapsed patients were allowed entry with one prior therapy. There was no limit on number of prior therapies. […] Exclusion criteria included presence of acute promyelocytic leukemia, CNS leukemia or total lifetime anthracycline exposure exceeding the equivalent of 900 mg/m^2 of DNR. Treatment consisted of bone marrow aspiration for correlative studies followed by one cycle of low dose DNR (6.75 mg/m^2×5 consecutive days, days 1-5) and second bone marrow aspiration on day 8. Effects on LSC population were measured by flow cytometry. Adverse events (AEs) and laboratory values were monitored for safety. This study is compliant with all relevant ethical regulations regarding research involving human participants and was approved by the Human Subjects Committee at the University of Kansas.

Turning to `COc1cccc2c1C(=O)c1c(O)c3c(c(O)c1C2=O)C[C@@](O)(C(C)=O)C[C@@H]3O[C@H]1C[C@H](N)[C@H](O)[C@H](C)O1` [DNR, Daunorubicin], the “LSC, HSPC and blast cell frequency compared with low-dose doxorubicin” value in experiment [1] is recorded as “performs similarly to low-dose doxorubicin”. For the same compound, in experiment [2], the “inhibition of pS552-β-catenin compared with DXR” value was “similarly inhibits pS^552-β-catenin”. Besides, in the experiment with pS^552-β-cat^+ LSCs, the “patients with substantial reductions in pS552-β-cat+ LSCs” value is recorded as 5/10 and the “patients with unchanged pS552-β-cat+ LSCs” value is 3/8.
